How the values were obtained:
[1] = target: T1, CDK2 (Homo sapiens, UniProt P24941); test: High-throughput HTRF measurement of cellular endogenous CDK2 level (degradation, DC50/Dmax) in OVCAR3 cells, 6 h; assay type: cell-based; conditions: 6 h compound treatment, HTRF total CDK2, read-out: DC50_OVCAR3_6h
T1 construct: High-Throughput Measurement of Cellular Endogenous CDK2; endogenous in cells; host or cells: OVCAR3
Procedure: High-Throughput Measurement of Cellular Endogenous CDK2
Effects of compounds on cellular CDK2 level were monitored by a high-throughput HTRF assay.
To determine half maximal degradation concentration (DC50) and maximum degradation level (Dmax) values of compounds, cellular CDK2 level was measured in 96-well format using HTRF total CDK2 cellular kit (Cat #64CDK2TPEG) from Cisbio.
On Day 1, OVCAR3 cells were seeded into 96-well tissue-culture treated plates at 20,000 cells/well in 200 μL and incubated overnight at 37° C. in CO2 atmosphere. On Day 2 cells were treated with compounds at concentration ranging from 0.03 to 1,000 nM using HP D300 digital dispenser. 6 hours after compound treatment, cell culture media was removed by flicking the plate and tapping the plate against clean paper towel. Immediately 30 μL 1× lysis buffer was supplemented from the kit and added to each well and the plate is incubated at room temperature on shaker for 30 min. After homogenization by pipetting up and down, 8 μL cell lysate from 96-well cell culture plate was transferred to 384-well small volume white detection plate. 2 μL premixed detection solution was added and the plate is covered with sealer. To prepare the detection solution, d2 conjugated-CDK2 antibody and Eu-cryptate conjugated CDK2 antibody were diluted into detection buffer following manufacturer's instruction. Detection plates were incubated overnight at room temperature and read on ClarioStar (BMG Labtech) in TR-FRET mode (665 nM and 620 nM). The TR-FRET ratio (665 nM/620 nM) was plotted against the compound concentration and normalized to DMSO controls (0% degradation) and lysis buffer controls (100% degradation). Half maximal degradation concentration (DC 50) […] were calculated with a four-parameter logistic fit using GraphPad Prism (version 8; La Jolla, CA).
In the table below, AA indicates a DC50 of greater than or equal to 0.5 nM but less than 1 nM; A indicates a DC50 of greater than or equal to 1 nM but less than or equal to 10 nM; B indicates a DC50 of greater than 10 nM but less than or equal to 100 nM; C indicates a DC50 of greater than 100 nM but less than or equal to 1 μM; and D indicates a DC50 of greater than 1 μM […] but less than or equal to 5 μM. NT means not tested.

[2] = target: T1, CDK2; test: Inhibition of CDK2: phospho-Rb (S807/811) HTRF measurement in OVCAR3 cells, 24 h; assay type: cell-based; conditions: 24 h compound treatment, read-out: pRB_OVCAR3_24h
Method in brief: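 OVCAR3 cells, seeded overnight, were exposed to compounds at 0.3 to 10,000 nM for 24 h, then lysed. Rb S807/811 phosphorylation read by HTRF (665/620 nm ratio) after 4 h detection at room temperature; data normalized to DMSO and IC50 from four-parameter logistic fit.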

DC50 [1] [nM] | IC50 [2] [nM] | SMILES
0.5 to 1 | 1 to 100 | Cn1c(=O)n(C2CCC(=O)NC2=O)c2ccc(C3CCN(CC4CCN(c5cc(S(=O)(=O)N6CCC(Nc7ncc(C(F)(F)F)cn7)CC6)ccc5C#N)CC4)CC3)cc21 (stereo not drawn) [Example 205, 2-(4-((4-(1-(2,6-dioxopiperidin-3-yl)-3-methyl-2-oxo-2,3-dihydro-1H-benzo[d]imidazol-5-yl)piperidin-1-yl)methyl)piperidin-1-yl)-4-((4-((5-(trifluoromethyl)pyrimidin-2-yl)amino)piperidin-1-yl)sulfonyl)benzonitrile]
1 to 10 | 1 to 100 | Cn1nc(N2CCC(=O)NC2=O)c2ccc(C3CCN(CC4CCN(c5cccc(S(=O)(=O)N6CC[C@H](Nc7ncc(Cl)cn7)[C@H](F)C6)c5)CC4)CC3)cc21 (racemic) [Example 202, Rac-1-(6-(1-((1-(3-(((3R,4S)-4-((5-chloropyrimidin-2-yl)amino)-3-fluoropiperidin-1-yl)sulfonyl)phenyl)piperidin-4-yl)methyl)piperidin-4-yl)-1-methyl-1H-indazol-3-yl)dihydropyrimidine-2,4(1H,3H)-dione]
10 to 100 | 1 to 100 | Cn1nc(N2CCC(=O)NC2=O)c2ccc(C3CCN(CCCc4cccc(S(=O)(=O)N5CCC(Nc6ncc(OC(F)F)cn6)CC5)c4)CC3)cc21 [Example 86, 1-(6-(1-(3-(3-((4-((5-(difluoromethoxy)-pyrimidin-2-yl)amino)piperidin-1-yl)sulfonyl)phenyl)propyl)piperidin-4-yl)-1-methyl-1H-indazol-3-yl)dihydropyrimidine-2,4(1H,3H)-dione]
10 to 100 | 100 to 500 | Cn1nc(N2CCC(=O)NC2=O)c2ccc(C3CCN(Cc4cccc(S(=O)(=O)N5CC[C@H](Nc6ncc(Cl)cn6)[C@H](F)C5)c4)CC3)cc21 [Example 27]
1 to 10 | 1 to 100 | Cn1nc(N2CCC(=O)NC2=O)c2ccc(C3CCN(Cc4ccc(S(=O)(=O)N5CCC(Nc6ncc(C(F)(F)F)cn6)CC5)cc4)CC3)cc21 [Example 64, 1-(1-methyl-6-(1-(4-((4-((5-(trifluoro-methyl)pyrimidin-2-yl)amino)piperidin-1-yl)sulfonyl)benzyl)piperidin-4-yl)-1H-indazol-3-yl)dihydropyrimidine-2,4(1H,3H)-dione]
1 to 10 | 100 to 500 | O=C1CCC(N2Cc3cc(N4CCN(Cc5cccc(S(=O)(=O)N6CCC(Nc7ncc(OC(F)F)cn7)CC6)c5)CC4)c(F)cc3C2=O)C(=O)N1 (stereo not drawn) [Example 74, 3-(5-(4-(3-((4-((5-(difluoromethoxy)-pyrimidin-2-yl)amino)piperidin-1-yl)sulfonyl)benzyl)piperazin-1-yl)-6-fluoro-1-oxoisoindolin-2-yl)piperidine-2,6-dione]
10 to 100 | 1 to 100 | Cn1nc(N2CCC(=O)NC2=O)c2cc(F)c(C3CCN(Cc4cccc(S(=O)(=O)N5CCC(Nc6ncc(C(F)(F)F)cn6)CC5)c4)CC3)cc21 [Example 16, 1-(5-fluoro-1-methyl-6-(1-(3-((4-((5-(trifluoromethyl)pyrimidin-2-yl)amino)-piperidin-1-yl)sulfonyl)benzyl)piperidin-4-yl)-1H-indazol-3-yl)dihydropyrimidine-2,4(1H,3H)-dione]
10 to 100 | 100 to 500 | Cn1c(=O)n(C2CCC(=O)NC2=O)c2cccc(C3CCN(CC4CCN(c5cc(F)cc(S(=O)(=O)N6CCC(Nc7ncc(Cl)cn7)CC6)c5)CC4)CC3)c21 (stereo not drawn) [Example 180, 3-(4-(1-((1-(3-((4-((5-chloropyrimidin-2-yl)amino)piperidin-1-yl)sulfonyl)-5-fluorophenyl)piperidin-4-yl)methyl)piperidin-4-yl)-3-methyl-2-oxo-2,3-dihydro-1H-benzo[d]imidazol-1-yl)piperidine-2,6-dione]
10 to 100 | 1 to 100 | Cn1nc(N2CCC(=O)NC2=O)c2ccc(C3CCN(Cc4cccc(S(=O)(=O)N5CCC(Nc6ncc(OC(F)F)cn6)CC5)c4)CC3)cc21 [Example 35, 1-(6-(1-(3-((4-((5-(difluoromethoxy)-pyrimidin-2-yl)amino)piperidin-1-yl)sulfonyl)benzyl)piperidin-4-yl)-1-methyl-1H-indazol-3-yl)dihydropyrimidine-2,4(1H,3H)-dione]
10 to 100 | 100 to 500 | Cn1nc(N2CCC(=O)NC2=O)c2ccc(C3CCN(CC4CCN(c5cc(F)cc(S(=O)(=O)N6CCC(Nc7ncc(OC(F)F)cn7)CC6)c5)CC4)CC3)cc21 [Example 175, 1-(6-(1-((1-(3-((4-((5-(difluoromethoxy)pyrimidin-2-yl)amino)piperidin-1-yl)sulfonyl)-5-fluorophenyl)piperidin-4-yl)methyl)piperidin-4-yl)-1-methyl-1H-indazol-3-yl)dihydropyrimidine-2,4(1H,3H)-dione]
10 to 100 | 1 to 100 | Cn1nc(N2CCC(=O)NC2=O)c2ccc(C3CCN(CC4CCN(c5cccc(S(=O)(=O)N6CCC(Nc7ncc(C(F)(F)F)cn7)CC6)c5)CC4)CC3)c(F)c21 [Example 94, 1-(7-fluoro-1-methyl-6-(1-((1-(3-((4-((5-(trifluoromethyl)pyrimidin-2-yl)amino)-piperidin-1-yl)sulfonyl)phenyl)piperidin-4-yl)methyl)piperidin-4-yl)-1H-indazol-3-yl)dihydropyrimidine-2,4(1H,3H)-dione]
10 to 100 | 1 to 100 | Cn1c(=O)n(C2CCC(=O)NC2=O)c2c(F)ccc(C3CCN(CC4CCN(c5cc(S(=O)(=O)N6CCC(Nc7ncc(Cl)cn7)CC6)ccc5C#N)CC4)CC3)c21 (stereo not drawn) [Example 220, 4-((4-((5-chloropyrimidin-2-yl)amino)piperidin-1-yl)sulfonyl)-2-(4-((4-(1-(2,6-dioxopiperidin-3-yl)-7-fluoro-3-methyl-2-oxo-2,3-dihydro-1H-benzo[d]imidazol-4-yl)piperidin-1-yl)methyl)piperidin-1-yl)benzonitrile]
10 to 100 | 1 to 100 | Cn1nc(N2CCC(=O)NC2=O)c2cc(F)c(C3CCN(CC4CCN(c5cccc(S(=O)(=O)N6CCC(Nc7ncc(Cl)cn7)CC6)c5)CC4)CC3)cc21 [Example 99, 1-(6-(1-((1-(3-((4-((5-chloropyrimidin-2-yl)amino)piperidin-1-yl)sulfonyl)phenyl)-piperidin-4-yl)methyl)piperidin-4-yl)-5-fluoro-1-methyl-1H-indazol-3-yl)dihydropyrimidine-2,4(1H,3H)-dione]
10 to 100 | 1 to 100 | O=C1CCC(n2c(=O)oc3c(C4CCN(CC5CCN(c6cccc(S(=O)(=O)N7CCC(Nc8ncc(Cl)cn8)CC7)c6)CC5)CC4)cccc32)C(=O)N1 (stereo not drawn) [Example 168, 3-(7-(1-((1-(3-((4-((5-chloropyrimidin-2-yl)amino)piperidin-1-yl)sulfonyl)phenyl)piperidin-4-yl)methyl)piperidin-4-yl)-2-oxobenzo[d]oxazol-3(2H)-yl)piperidine-2,6-dione]
1 to 10 | 1 to 100 | Cn1nc(N2CCC(=O)NC2=O)c2ccc(C3CCN(CC4CCN(c5cccc(S(=O)(=O)N6CC[C@H](Nc7ncc(C(F)(F)F)cn7)[C@H](F)C6)c5)CC4)CC3)cc21 (racemic) [Example 223, Rac-1-(6-(1-((1-(3-(((3R,4S)-3-fluoro-4-((5-(trifluoromethyl)pyrimidin-2-yl)amino)piperidin-1-yl)sulfonyl)phenyl)piperidin-4-yl)methyl)piperidin-4-yl)-1-methyl-1H-indazol-3-yl)dihydropyrimidine-2,4(1H,3H)-dione]
